Patent publication US20230241232A1, “Size-Dependent Brain and Lymphatic Distribution of Macromolecular Drug Delivery Platform” (The United States of America, As Represented by the …, priority 2020, published 2023)

Molecular target: T1, scavenger receptor A (Mus musculus, UniProt P30204)
T1 construct: endogenous in cells; host or cells: Raw 264.7 macrophages
T1 sequence (P30204 1-458): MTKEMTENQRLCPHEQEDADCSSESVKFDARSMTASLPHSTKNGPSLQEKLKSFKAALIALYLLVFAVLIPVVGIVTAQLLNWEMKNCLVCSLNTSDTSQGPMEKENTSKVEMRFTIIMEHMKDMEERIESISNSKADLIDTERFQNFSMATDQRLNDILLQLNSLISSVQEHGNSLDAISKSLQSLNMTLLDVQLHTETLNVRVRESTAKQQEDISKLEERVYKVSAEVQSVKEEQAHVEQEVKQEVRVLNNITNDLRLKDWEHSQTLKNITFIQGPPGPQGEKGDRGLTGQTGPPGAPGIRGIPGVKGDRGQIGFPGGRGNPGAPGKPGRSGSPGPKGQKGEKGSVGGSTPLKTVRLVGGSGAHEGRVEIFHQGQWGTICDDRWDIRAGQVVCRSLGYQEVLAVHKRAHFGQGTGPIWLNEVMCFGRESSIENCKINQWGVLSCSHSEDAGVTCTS
Experiment: Competitive inhibition of polymer-488 cell uptake by poly I / poly C in Raw 264.7 macrophages
Format: cell-based
Settings: for inhibition of polymer-488 fluorescence (% control): Raw 264.7 cells, various inhibitor concentrations, polymer-488 constant, 37° C. 3 hours, FIG. 4; for inhibition of scavenger receptor interaction of polymer-488 (fluorescence): Raw 264.7 macrophages, various concentrations of polymer-488, with or without inhibitor, FIG. 3
Procedure: The fluorescently labelled poly(L-lysine succinylated) was also tested for cell uptake in a macrophage cell line Raw 264.7 in the presence of competitive inhibitors and relevant controls. […] At higher concentrations of polymer-488, fluorescence is seen due to competing off the poly I.
In a follow up study, cells were treated with various concentrations of either poly I or poly C while polymer-488 concentration remained constant. In this study, Raw 264.7 cells were incubated overnight at 400,000 cells/mL. The cells were then treated with various concentrations of polymer-488 and either 200 μg/mL poly I, 200 μg/mL poly C, or no inhibitor. The cells were incubated at 37° C. for 3 hours, washed 3 times with media, and fluorescence measured.

Substance	inhibition of polymer-488 fluorescence (% control)	inhibition of scavenger receptor interaction of polymer-488 (fluorescence)
polycytidylic acid [poly C]	virtually no inhibition of fluorescence	not with poly C
polyinosinic acid [poly I]	dose-dependent inhibition	inhibition of scavenger receptor interaction
